The test system of series [1] is PLA2 activity of D. russelii venom. The experiment in a line: Miniaturised 384-well colorimetric sPLA2 assay, D. russelii venom. The format is biochemical, Daboia russelii. To be noted: for mean inhibition between screen and rescreen / Percent inhibition (PLA2) Rescreen: 10 µM; for mean inhibition between screen and rescreen: D. russelii venom; for EC50: 2-fold dilutions 10 µM to 5 pM, n = 4; for Percentage of Inhibition: Table S1, strong hits, value used for ligand efficiency metrics; for venom PLA2 activity in presence of compound: interleaved validation plates, 10 µM compound; for venom PLA2 activity in presence of compound / Percent inhibition (PLA2) Original / Percent inhibition (PLA2) Rescreen: 20 ng/well D. russelii venom; for Percent inhibition (PLA2) Original: primary screen, 10 µM drug, single point, relative to varespladib (100%) and DMSO (0%); for Percent inhibition (PLA2) Rescreen: rescreen of library hits, average of rescreen (2 ≤ n ≤ 4). The protocol: Once hydrolysed, this substrate yields a free thiol group that interacts with 5,5′-dithio-bis-(2-nitrobenzoic acid) (DTNB), which is then converted into 2-nitro-5-thiobenzoic acid, causing a change in colour which is measurable at 405 nm. This conversion is measured kinetically and occurs at a linear rate until the substrate is exhausted, at which point the absorbance plateaus. Appropriate PLA2 concentrations are determined to fit within the linear range of the assay and a bee venom positive control is included with the kit. The assay is designed for 96-well plates and is quite costly at GBP£440/96 tests at the time of writing. We wanted to adapt and miniaturise this methodology for high-throughput screening of PLA2 activity and inhibition in 384-well plates to decrease cost and increase output, without compromising assay robustness.
Prior to conducting drug library screens, it was important to assess whether any drift or edge effects occurred in our setup. […] These consisted of full rows of these compounds in a repeating pattern (e.g., DMSO was in rows A, E, I, M, buffer was in rows B, F, J, N, etc.) on a 384-well plate. The assay was conducted as previously described using 20 ng/well of D. russelii venom across the plate. This was repeated three times on different days. To determine PLA2 activity under each of these conditions, the slope of each reaction was calculated by dividing the difference in absorbance at 405 nm between the first two time points in the linear range (tn–t0) by time (in min) where tn was 2 min 41 s in this case. These values were then inputted into the following equation: A µmol/min×mL=slope×0.045/4.6×0.01 where A represents venom activity, 0.045 is a factor representing the total volume of the assay (45 µL), 4.6 is the extinction coefficient of DTNB in 384-well plates, and 0.01 represents the sample size of 10 µL. This activity is then converted into specific activity by dividing the overall activity to the amount of venom in the reaction in micrograms.
Once in house this library was formatted as 11 × 384-well stock plates containing drugs at a concentration of 1 mM in DMSO. […] Assay-ready plates (ARPs) were made by transferring 0.5 µL from each well of the stock plates onto new 384-well plates, so that the layout of the ARP matched that of the stock plate. Venom was added at 10 µL per well (20 ng venom/well) across the plate, except for column 24 which received 10 µL of assay buffer. These latter wells containing control drugs and assay buffer served as the blank. The plates were incubated for 25 min at 37°C, then left to reach room temperature for 5 min. […] The data were analysed as above by calculating the slopes of all reactions on the plate. The average of the slopes of the blanks was then subtracted from each of these values, and specific activity calculated as described and expressed as µmol/min/mL/µg of venom.
These experiments were conducted and analysed as above, with n = 4 repeats per compound.

The subject of series [2] is PLA2 activity of C. durissus terrificus venom. The experiment in a line: Miniaturised 384-well colorimetric sPLA2 assay, C. durissus terrificus venom. To be noted: for EC50: read-out: EC50 (nM) C. durissus terrificus, 2-fold dilutions 10 µM to 5 pM, n = 4; for % inhibition: C. durissus terrificus: re-sourced drugs, 10 µM, 12.5 ng venom, varespladib normalised as 100%.
Experimental: (§1) The final concentrations of DTNB and that of the substrate in the assay were 0.44 and 0.88 mM, respectively.
(§2) Then, 10 µL of snake venom at a concentration appropriate for the venom being screened was added to the plates using the VIAFLO384 and the plates were sealed with adhesive plate seals (Greiner BioOne), spun down and incubated for 25 min at 37°C. To prevent the degradation of any potential photolabile compounds, the plates were wrapped in aluminium foil prior to the incubation step. The plates were then taken out of the incubator and left to acclimatise at room temperature for 5 min.
(§3) To determine percentage inhibition relative to the positive and negative controls we applied the following formula: % inhibition= A− µ pos/µ neg− µ pos×100 where A represents specific activity as determined for each sample, and µ (pos) and µ (neg) represent the means of the specific activity in the positive and negative controls, respectively.
(§4) Drugs were plated as before, starting at 10 µM followed by 2-fold dilutions down to 5 pM, with each dilution series plated in quadruplicate. The data were analysed and expressed as described above and the percentage PLA2 inhibition values were used to generate EC50s in Graphpad Prism 9 using a nonlinear regression to fit the dose-response inhibition curve.
On the set-up of series [3]: method as in Cerdá et al., 2003. To be noted: ref Cerdá et al., 2003; cited from earlier work.
The test system of series [4] is PLA2 activity of N. nigricollis venom. The series is described as follows: Miniaturised 384-well colorimetric sPLA2 assay, N. nigricollis venom. To be noted: for % inhibition: N. nigricollis: re-sourced drugs, 10 µM, 5 ng venom, varespladib normalised as 100%.
Experimental: as §1, §2, §3, §4
Series [5] concerns PLA2 activity of D. russelii venom. The experiment in a line: Miniaturised 384-well colorimetric sPLA2 assay, D. russelii venom. The series is classed as biochemical, Daboia russelii. To be noted: re-sourced drugs, 10 µM, 30 ng venom, varespladib normalised as 100%.
Series [6] has as its system PLA2 activity of N. naja venom. The series is described as follows: Miniaturised 384-well colorimetric sPLA2 assay, N. naja venom. To be noted: re-sourced drugs, 10 µM, 40 ng venom, varespladib normalised as 100%.
Experimental: as §1, §2, §3
Series [7] deals with PLA2 activity of C. atrox venom. The experiment in a line: Miniaturised 384-well colorimetric sPLA2 assay, C. atrox venom. The note with it: re-sourced drugs, 10 µM, 30 ng venom, varespladib normalised as 100%.
Experimental: as §1, §2, §3
Series [8] has as its system PLA2 activity of B. arietans venom. The experiment in a line: Miniaturised 384-well colorimetric sPLA2 assay, B. arietans venom. The note with it: re-sourced drugs, 10 µM, 40 ng venom, varespladib normalised as 100%.
Experimental: as §1, §2, §3
On the set-up of series [9]: method as in Liu et al., 1987; Coutinho et al., 2000. The note with it: dose of up to 20 mg/day, trialled in the 1970s in China; ref Liu et al., 1987; Coutinho et al., 2000; cited from earlier work.
Series [10] relates to non-small cell lung carcinoma cells. Further details: method as in Wang et al., 2018. To be noted: ref Wang et al., 2018; cited from earlier work.
Details of series [11]: method as in Beaudoin, 1985. The note with it: ref Beaudoin, 1985; cited from earlier work.
The test system of series [12] is secreted PLA2. Further details: method as in Yu et al., 1997. To be noted: ref Yu et al., 1997; cited from earlier work.
Series [13] deals with PLA2 activity of C. durissus terrificus venom. Further details: method as in Cotrim et al., 2011. The note with it: ref Cotrim et al., 2011; cited from earlier work.
[14] abbreviates: read-out: EC50 (nM) D. russelii.

Counter-ions that a name gives are not always drawn. Like-named read-outs stand apart in the source and are kept apart here.

Take `CC(=O)O.Cc1cc2c(C(C)C)c(O)c(O)c(C=O)c2c(O)c1-c1c(C)cc2c(C(C)C)c(O)c(O)c(C=O)c2c1O`: in series [1], the “mean inhibition between screen and rescreen” value is listed as 89.2%.
As to `O=C1O[C@H]2[C@@H]3OC(=O)c4cc(O)c(O)c(O)c4-c4c(O)c(O)c5oc(=O)c6c(c(O)c(O)c7oc(=O)c4c5c76)-c4c(cc(O)c(O)c4O)C(=O)OC[C@H]3OC(O)[C@@H]2OC(=O)c2cc(O)c(O)c(O)c2-c2c1cc(O)c(O)c2O` (mixture of isomers) [Punicalagin, punicalagin], the EC50 (in general, the concentration needed to bring the measured effect to its halfway point) in series [2] was determined as 167 nM; in [4] (read-out: EC50 (nM) N. nigricollis, 2-fold dilutions 10 µM to 5 pM, n = 4), 270 nM; in series [1] (setting [14]), 559 nM. The “toxicity at high doses in rodents” value in series [3] is listed as “non-toxic”. For the same molecule, in series [1], the “mean inhibition between screen and rescreen” value came to 71.7%. Also, the “Percentage of Inhibition” value in [1] is reported as 83.82. Besides, the “% inhibition: D. russelii” value in series [5] is reported as “above 72%”.
In the case of `CC1(C)C2CCC1(C)C(O)C2` (racemic) [DL-Borneol], the “% inhibition: C. durissus terrificus” value in series [2] was “did not re-test as a hit”. Also, the “% inhibition: N naja” value in [6] is on record as “did not re-test as a hit”. For the same molecule, in series [7], the “% inhibition: C. atrox” value is “did not re-test as a hit”. Besides, in series [4], the “% inhibition: N. nigricollis” value is on record as “did not re-test as a hit”. Further, in [8], the “% inhibition: B. arietans” value was “did not re-test as a hit”. In addition, the “mean inhibition between screen and rescreen” value in [1] was 95.1%. In series [5], the “% inhibition: D. russelii” value was “did not re-test as a hit”.
In the case of `Cc1cc2c(C(C)C)c(O)c(O)c(C=O)c2c(O)c1-c1c(C)cc2c(C(C)C)c(O)c(O)c(C=O)c2c1O` [Gossypol], the concentration for a half-maximal effect (EC50) in series [2] is 69.1 nM; in series [1] (setting [14]), 94.1 nM. Besides, the “efficacy and tolerability as male contraceptive” value in series [9] is “efficacious and well tolerated”. Also, in series [6], the “% inhibition: N naja” value is listed as 30%. The “proliferation in non-small cell lung carcinoma cells” value in series [10] is “inhibited proliferation”. The “% inhibition: N. nigricollis” value in series [4] worked out at 64%. The teratogenicity entry in [11] is “non-teratogenic”. Moreover, in series [1], the “mean inhibition between screen and rescreen” value turned out to be 76.6%. Moreover, the “inhibition of secreted PLA2 activity” value in series [12] was “reported inhibition of secreted PLA2 activity”.
Consider `CNC(=O)[C@@H](NC(=O)[C@H](CC(C)C)[C@H](O)C(=O)NO)C(C)(C)C` [Marimastat, marimastat], for which, in series [1], the “venom PLA2 activity in presence of compound” value is reported as 6–8 μmol/min/mL/µg venom.
`CC(=O)Oc1cc2c(s1)CCN(C(C(=O)C1CC1)c1ccccc1F)C2` (stereo not drawn) [Prasugrel (hydrochloride), prasugrel hydrochloride]: in [1], the “mean inhibition between screen and rescreen” value worked out at 83.9%; the “Percentage of Inhibition” value is on record as 89.92. In addition, the “% inhibition: D. russelii” value in series [5] is “above 72%”.
As for `O=c1c(O)c(-c2ccc(O)c(O)c2)oc2cc(O)cc(O)c12` [Quercetin (dihydrate), quercetin dihydrate], in series [2], the “% inhibition: C. durissus terrificus” value is on record as approximately 65%. For the same molecule, in series [6], the “% inhibition: N naja” value is less than 15%. Moreover, in [7], the “% inhibition: C. atrox” value is less than 15%. Further, the “% inhibition: N. nigricollis” value in series [4] was less than 15%. In addition, the “% inhibition: B. arietans” value in series [8] is listed as less than 15%. In series [1], the “Percent inhibition (PLA2) Original” value is on record as more than 70% and the “Percent inhibition (PLA2) Rescreen” value is recorded as “failed to inhibit”. In addition, the “% inhibition: D. russelii” value in [5] amounted to 42%. For the same molecule, the “inhibition of enzymatic PLA2s from C. durissus terrificus venom” value in series [13] was “previously shown to inhibit”.
Consider `O=C(/C=C/c1ccc(O)c(O)c1/C=C/c1ccc(O)c(O)c1)O[C@H](Cc1ccc(O)c(O)c1)C(=O)O` [Salvianolic acid A], for which, in series [1], the “Percent inhibition (PLA2) Rescreen” value is recorded as “failed to reproducibly inhibit”.
As to `CCc1c(C(=O)C(N)=O)c2c(OCC(=O)O)cccc2n1Cc1ccccc1` [Varespladib], in series [2], the “% inhibition: C. durissus terrificus” value is given as “reducing readings to control levels” and the 50% effective concentration (EC50) is 5.5 nM. Moreover, in series [6], the “% inhibition: N naja” value is on record as “reducing readings to control levels”. For the same molecule, the “% inhibition: C. atrox” value in series [7] is recorded as “reducing readings to control levels”. The “inhibition of venom PLA2 activity (reaction rate)” value in series [4] (10 µM varespladib, elapid venom, Figure 1B) was “inhibited venom activity to baseline readings”. For the same molecule, the “% inhibition: N. nigricollis” value in series [4] is “reducing readings to control levels”. In [8], the “% inhibition: B. arietans” value is “reducing readings to control levels”. Further, the “inhibition of venom PLA2 activity (reaction rate)” value in [1] (10 µM varespladib, viper venom, Figure 1B) is recorded as “inhibited venom activity to baseline readings”. For the same molecule, the half-maximal effective concentration (EC50) in series [1] (text value in pM, read-out: EC50 against D. russelii venom) worked out at 0.5 nM. Further, in series [1], the “venom PLA2 activity in presence of compound” value is reported as “dropped sharply” and the “Percent inhibition (PLA2) Original” value is more than 99%. For the same molecule, the “% inhibition: D. russelii” value in [5] is listed as “reducing readings to control levels”.
As for Tannic acid, in [1], the “mean inhibition between screen and rescreen” value amounted to 92.1%.

The record behind these values is paper PMC10808766, “Optimizing drug discovery for snakebite envenoming via a high-throughput phospholipase A2 screening platform” (Frontiers in Pharmacology, 2024).
